According to PubChem BioAssay AID1963966 (Molecular Pharmacology Branch, DTP, NCI, 2024):

Test system: 935938-334-R-J1-PDC spheroids with HUVEC/MSC, viability
Assay: Anticancer human tumor 935938-334-R-J1-PDC patient-derived small intestine adenocarcinoma cell line growth inhibition [PI3K]
Conditions: for IC50: curve of first compound; for viability, T/C: stronger effect = lower value
Method in brief: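 Three cell types, namely tumor cells, endothelial cells and mesenchymal stem cells, formed each spheroid. Combinations with four PI3K inhibitors were screened at clinically achievable concentrations decreasing by half-log, and spheroid viability was recorded.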

[1] = second compound 0.0316 µM, first compound 0.0316 µM
[2] = second compound 0.0316 µM, first compound 0.1 µM
[3] = second compound 0.0316 µM, first compound 0.316 µM
[4] = second compound 0.0316 µM, first compound 1 µM
[5] = second compound 0.0316 µM, first compound 3.16 µM
[6] = second compound 0.0316 µM, first compound 10 µM
[7] = second compound 0.1 µM, first compound 0.0316 µM
[8] = second compound 0.1 µM, first compound 0.1 µM
[9] = second compound 0.1 µM, first compound 0.316 µM
[10] = second compound 0.1 µM, first compound 1 µM
[11] = second compound 0.1 µM, first compound 3.16 µM
[12] = second compound 0.1 µM, first compound 10 µM
[13] = second compound 0.316 µM, first compound 0.0316 µM
[14] = second compound 0.316 µM, first compound 0.1 µM
[15] = second compound 0.316 µM, first compound 0.316 µM
[16] = second compound 0.316 µM, first compound 1 µM
[17] = second compound 0.316 µM, first compound 3.16 µM
[18] = second compound 0.316 µM, first compound 10 µM
[19] = second compound 1 µM, first compound 0.0316 µM
[20] = second compound 1 µM, first compound 0.1 µM
[21] = second compound 1 µM, first compound 0.316 µM
[22] = second compound 1 µM, first compound 1 µM
[23] = second compound 1 µM, first compound 3.16 µM
[24] = second compound 1 µM, first compound 10 µM
[25] = second compound 3.16 µM, first compound 0.0316 µM
[26] = second compound 3.16 µM, first compound 0.1 µM
[27] = second compound 3.16 µM, first compound 0.316 µM
[28] = second compound 3.16 µM, first compound 1 µM
[29] = second compound 3.16 µM, first compound 3.16 µM
[30] = second compound 3.16 µM, first compound 10 µM
[31] = second compound 10 µM, first compound 0.0316 µM
[32] = second compound 10 µM, first compound 0.1 µM
[33] = second compound 10 µM, first compound 0.316 µM
[34] = second compound 10 µM, first compound 1 µM
[35] = second compound 10 µM, first compound 3.16 µM
[36] = second compound 10 µM, first compound 10 µM
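Note: compound exposure lasted seven days before viability was read.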
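Throughout, for viability, T/C: percent of vehicle DMSO treated spheroid viability so 100% = untreated.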

Compound `CC1(C)CCC(CN2CCN(c3ccc(C(=O)NS(=O)(=O)c4ccc(NCC5CCOCC5)c([N+](=O)[O-])c4)c(Oc4cnc5[nH]ccc5c4)c3)CC2)=C(c2ccc(Cl)cc2)C1` + CC(Nc1ncnc2nc[nH]c12)c1cc2cccc(Cl)c2c(=O)n1-c1ccccc1 has an IC50 (second compound 0.0316 µM) of 6.28 µM, an IC50 (second compound 0.1 µM) of 6.66 µM and an IC50 (second compound 0.316 µM) of 6.04 µM. The IC50 (second compound 1 µM) was 6.82 µM, the IC50 (second compound 3.16 µM) was 6.73 µM and the IC50 (second compound 10 µM) was 5.59 µM. It also gave a viability, T/C [1] of 98.3%, a viability, T/C [2] of 93.6% and a viability, T/C [3] of 90.8%. For the same compound, the viability, T/C [4] was 88.8%, the viability, T/C [5] was 89% and the viability, T/C [6] was 23.5%. For the same compound, the viability, T/C [7] was 98.2%, the viability, T/C [8] was 104% and the viability, T/C [9] was 94.3%. For the same compound, the viability, T/C [10] was 105%, the viability, T/C [11] was 95.1% and the viability, T/C [12] was 25.2%. For the same compound, the viability, T/C [13] was 104%, the viability, T/C [14] was 98.9% and the viability, T/C [15] was 105%. The viability, T/C [16] was 93.8%, the viability, T/C [17] was 86.7% and the viability, T/C [18] was 22.3%. It also gave a viability, T/C [19] of 80.7%, a viability, T/C [20] of 94.1% and a viability, T/C [21] of 69.1%. It also gave a viability, T/C [22] of 102%, a viability, T/C [23] of 92.7% and a viability, T/C [24] of 31.2%. For the same compound, the viability, T/C [25] was 92.6%, the viability, T/C [26] was 89.2% and the viability, T/C [27] was 87.1%. For the same compound, the viability, T/C [28] was 93.2%, the viability, T/C [29] was 92.5% and the viability, T/C [30] was 28.4%. The viability, T/C [31] was 81.7%, the viability, T/C [32] was 61.5% and the viability, T/C [33] was 91.2%. For the same compound, the viability, T/C [34] was 86.5%, the viability, T/C [35] was 73.4% and the viability, T/C [36] was 26.1%.

Work on `CCCS(=O)(=O)Nc1ccc(F)c(C(=O)c2c[nH]c3ncc(-c4ccc(Cl)cc4)cc23)c1F` + CC(Nc1ncnc2nc[nH]c12)c1cc2cccc(Cl)c2c(=O)n1-c1ccccc1 yielded an IC50 (second compound 0.0316 µM) of 6.71 µM, an IC50 (second compound 0.1 µM) of 6.81 µM and an IC50 (second compound 0.316 µM) of 6.86 µM. It also gave an IC50 (second compound 1 µM) of 6.77 µM, an IC50 (second compound 3.16 µM) of 6.38 µM and an IC50 (second compound 10 µM) of 5.62 µM. For the same compound, the viability, T/C [1] was 107%, the viability, T/C [2] was 100% and the viability, T/C [3] was 140%. For the same compound, the viability, T/C [4] was 102%, the viability, T/C [5] was 95.2% and the viability, T/C [6] was 26.3%. It also gave a viability, T/C [7] of 88.2%, a viability, T/C [8] of 98.7% and a viability, T/C [9] of 95.9%. It also gave a viability, T/C [10] of 94%, a viability, T/C [11] of 108% and a viability, T/C [12] of 26.5%. For the same compound, the viability, T/C [13] was 99.8%, the viability, T/C [14] was 94% and the viability, T/C [15] was 111%. The viability, T/C [16] was 110%, the viability, T/C [17] was 96.3% and the viability, T/C [18] was 27%. For the same compound, the viability, T/C [19] was 97%, the viability, T/C [20] was 105% and the viability, T/C [21] was 109%. It also gave a viability, T/C [22] of 118%, a viability, T/C [23] of 91.6% and a viability, T/C [24] of 28.5%. The viability, T/C [25] was 109%, the viability, T/C [26] was 91.6% and the viability, T/C [27] was 99.9%. For the same compound, the viability, T/C [28] was 117%, the viability, T/C [29] was 84.3% and the viability, T/C [30] was 28%. The viability, T/C [31] was 91.2%, the viability, T/C [32] was 86.5% and the viability, T/C [33] was 91.6%. It also gave a viability, T/C [34] of 97%, a viability, T/C [35] of 78.1% and a viability, T/C [36] of 21.9%.

In the case of `CNC(=O)c1ccc(N2C(=S)N(c3ccc(C#N)c(C(F)(F)F)c3)C(=O)C2(C)C)cc1F` + CC(Nc1ncnc2nc[nH]c12)c1cc2cccc(Cl)c2c(=O)n1-c1ccccc1, the IC50 (second compound 0.0316 µM) is reported as > 10 µM, the IC50 (second compound 0.1 µM) is reported as > 10 µM and the IC50 (second compound 0.316 µM) is reported as > 10 µM. For the same compound, the IC50 (second compound 1 µM) was > 10 µM, the IC50 (second compound 3.16 µM) was > 10 µM and the IC50 (second compound 10 µM) was > 10 µM. For the same compound, the viability, T/C [1] was 102%, the viability, T/C [2] was 94.8% and the viability, T/C [3] was 136%. It also gave a viability, T/C [4] of 85.2%, a viability, T/C [5] of 78.2% and a viability, T/C [6] of 133%. It also gave a viability, T/C [7] of 98.1%, a viability, T/C [8] of 84.4% and a viability, T/C [9] of 102%. For the same compound, the viability, T/C [10] was 90%, the viability, T/C [11] was 81.3% and the viability, T/C [12] was 84.7%. The viability, T/C [13] was 100%, the viability, T/C [14] was 72.2% and the viability, T/C [15] was 95.3%. The viability, T/C [16] was 83.6%, the viability, T/C [17] was 95% and the viability, T/C [18] was 65.4%. It also gave a viability, T/C [19] of 97.4%, a viability, T/C [20] of 83.9% and a viability, T/C [21] of 70.8%. The viability, T/C [22] was 69.7%, the viability, T/C [23] was 96% and the viability, T/C [24] was 73.5%. It also gave a viability, T/C [25] of 72.8%, a viability, T/C [26] of 91.4% and a viability, T/C [27] of 103%. It also gave a viability, T/C [28] of 99.9%, a viability, T/C [29] of 61% and a viability, T/C [30] of 81.8%. For the same compound, the viability, T/C [31] was 80.8%, the viability, T/C [32] was 92% and the viability, T/C [33] was 72.3%. It also gave a viability, T/C [34] of 71.6%, a viability, T/C [35] of 75.3% and a viability, T/C [36] of 63.9%.
